Measured values published in patent US9862713B2, “Substituted bicyclic heteroaryl compounds as RXR agonists” (CONNEXIOS LIFE SCIENCES PVT. LTD., priority 2014, dated 2018).

Tests used:
MIA PaCa-2 cells [1] = test: BrdU incorporation assay in MIA PaCa-2 cells; format: cell-based; details: 3 uM
Experimental: Impact of compound-40 on cell proliferation was further evaluated by BrdU incorporation assay. MIA PaCa-2 cells were grown for 4 days in presence or absence of compound-40 (3 uM). After treatment with vehicle control or compound-40 (3 uM), cells were exposed to BrdU. BrdU incorporation was measured using a commercially available kit (Roche) as per manufacturer's protocol.

MIA PaCa-2 cells [2] = test: MIA PaCa-2 cell growth (cell count); format: cell-based; details: 0.1 uM and higher (up to 10.0 uM); day 2, 4 and 6
Experimental: Cancer is characterized by uncontrolled cell growth. Any agent which can reduce the cellular growth will have high therapeutic potentials. […] MIA PaCa-2 cells (ATCC) were seeded in a 6-well plate (20,000 cells per well) in DMEM containing 25 mM glucose, 10% FBS, 2.5% horse serum in presence or absence of different concentrations of compound-40 as mentioned. Cells were harvested on day 2, day 4 and day 6, and cell numbers were measured. MIA PaCa-2 cells were grown with or without different concentrations of compound-40 (0.0, 0.1, 0.3, 1.0, 3.0 and 10.0 uM) and cell growth was measured by cell count at different time points (day 2, 4 and 6).

MIA PaCa-2 cells [3] = test: Cell death (DNA fragmentation) in MIA PaCa-2 cells; format: cell-based
Experimental: (§1) Caspase-3 activity was measured using its ability to cleave its substrate (Ac-DEVD-R110). Increased Caspase-3 activity would lead to higher release of fluorescent R110 which was measured at 485 nm excitation and 530 nm emission. Activity of caspase-3 (as nano-moles of R110 released) was normalized to total cellular protein. […] Cell death was measured by increased levels of DNA fragments as per manufacturer's protocol (Roche) and was normalized to total cellular DNA. Data are represented as % of control.

astrocytes = test: Astrocytes treated with PMA and LPS: ROS levels and inflammation markers; format: cell-based; details: 48 h
Experimental: Furthermore, cultured astrocytes were treated with phorbol-12-myristate-13-acetate (PMA) and Lipopolysaccharides (LPS) alone or with test molecule for 48 h to measure ROS levels. To evaluate the effect on inflammation markers, astrocytes were treated with PMA and test molecule for 48 h.

MIA PaCa-2 cells [4] = test: Caspase-3 activity (Ac-DEVD-R110 cleavage) in MIA PaCa-2 cells; format: cell-based
Experimental: as §1

ob/ob mice = test: Effect of RXR agonist on ob/ob mice; format: in vivo; details: 3, 10 and 30 mg/kg, BID, po; 4 weeks
Experimental: The male ob/ob and lean mice were procured from Harlon laboratories, acclimatized for a week, were fed a standard laboratory diet. The lean control and the ob/ob mice were 16 weeks old at the start of the study and were randomized to either vehicle or drug (Compound 40, 3, 10 and 30 mg/kg, BID, po) treatment groups by body weight, fed glucose and glucose AUC during an oral glucose tolerance test. The treatment was continued for 4 weeks. Fed glucose and fast triglycerides (tail snip) were monitored weekly. At the end of week 4 of the treatment, Animals were sacrificed […] terminal measurement of fasting glycerol, free fatty acid, cholesterol, LDL levels.

hRXR α, β, or γ = test: Transactivation assay (RARE-Luc dual luciferase reporter in HEK-293 cells), activity relative to LG268; format: cell-based, human; details: 24 h, luciferase activity expressed relative to LG268
Outline: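 HEK-293 cells co-transfected with hRXR α, β or γ expression vector, RARE-firefly luciferase and renilla luciferase; 24 h later treated with agonist (100 nM, 300 nM, 1 uM) for 24 h. Firefly signal normalized to renilla; activity expressed relative to the RXR agonist LG268.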

db/db mice = test: Effect of RXR agonist on db/db mice; format: in vivo; details: 2.5, 5, 10 and 15 mg/kg, BID, po
Experimental: The male db/db and lean mice were procured from Jackson Laboratory, US laboratories, acclimatized for a week, were fed a standard laboratory diet. The lean control and the db/db mice were 8 weeks old at the start of the study and were randomized to either vehicle or drug (Compound 40, 2.5, 5, 10 and 15 mg/kg, BID, po) treatment groups by body weight, fed glucose and glucose AUC during an oral glucose tolerance test. The treatment was continued for 8 weeks. Body weight, fasting and fed glucose and fast triglycerides (tail snip) were monitored weekly. At the end of week 8 of the treatment, glucose and insulin HbAlc levels were followed at different time intervals. Blood samples collected from tail nipping method were subjected at the end of week 7 of treatment period measured for HbAlc levels by DCA vantage (SIEMENS).
Assessment of 24 h glucose profile: Fed state blood samples were collected by tail nipping method and measured for glucose levels at every 2 h time intervals up to 8 h and then followed by 4 h intervals at the end of week 7 of treatment.

MIA PaCa-2 cells [5] = test: ROS level (DCFH-DA probe) in MIA PaCa-2 cells; format: cell-based; details: 4 days treatment
Experimental: To assess the impact of Compound 40 on ROS level, the cells were exposed to ROS indicator probe (DCFH-DA) for 1 h. ROS induced increase in DCF fluorescence was estimated at 485 nm excitation and 528 nm emission. ROS levels were normalized to cellular DNA levels which were measured by using bis-benzamide fluorescence at 360 nm excitation and 460 nm emission. The ROS levels are represented at % of control. […] Over-expression of RXRa further augmented the ROS levels.

[6] = test system: mouse neuronal cells (N2A cells); test: Cholesterol-treated neuronal cells (N2A), in vitro data for Alzheimer's disease; format: cell-based; details: 320 uM cholesterol
Experimental: In order to study the impact of Compound 40 on Alzheimer's Disease, cultured mouse neuronal cells (N2A cells) were treated with 320 uM cholesterol alone or with test molecule for 24 h. Cholesterol was removed and treatment is continued for 24 h. Cholesterol content in the cells was measured by biochemical methods, normalized to total protein. For gene expression studies, cells were treated with 320 uM cholesterol alone or with test molecule for 48 h. RNA was made and later converted to cDNA and the gene expression was measured. […] These cellular events lead to reduced plaque formation and improvement in the health of neuronal cells.

In the case of CC1(C)CCC(C)(C)c2sc(N(CC3CC3)c3ccc(C(=O)O)cn3)nc21 [Compound 40, 6-[(Cyclopropylmethyl) (4,4,7,7-tetramethyl-4,5,6,7-tetrahydro-1,3-benzothiazol-2-yl)amino]pyridine-3-carboxylic acid], the BrdU incorporation (MIA PaCa-2 cells [1]; 4 days) is reported as “significantly reduced”, the “BrdU incorporation in RXRa over-expressing MIA PaCa-2” value (MIA PaCa-2 cells [1]; RXRa over-expressing cells) is reported as “further reduced the BrdU incorporation” and the “cell growth (cell count)” value (MIA PaCa-2 cells [2]) is reported as “significant reduction in cell growth”. For the same compound, the “cell death (DNA fragmentation)” value (MIA PaCa-2 cells [3]) was “increased cell death”, the “oxidative stress (ROS levels)” value (astrocytes; PMA and LPS) was “reduce both oxidative stress” and the “inflammation (IL6 secretion and expression, expression of IL1b, COX2 and MCP1)” value (astrocytes; PMA) was “reduce inflammation”. For the same compound, the Caspase-3 activity (MIA PaCa-2 cells [4]) was “significantly increased”, the LDL-c (ob/ob mice) was “decreasing LDL-c” and the “prandial hyperglycemia (fed glucose)” value (ob/ob mice) was “both an early onset and sustained control of prandial hyperglycemia”. The total cholesterol (ob/ob mice) was “significantly decreased total cholesterol”, the “Activity at 300 nM” value (hRXR α, β, or γ; compound at 300 nM) was “***** (>0.6)” and the “Activity at 1 µM” value (hRXR α, β, or γ; compound at 1 µM) was “**** (>0.9 to <1)”. The “post-prandial blood glucose levels” value (db/db mice; 8 weeks) was “significantly reduced post-prandial blood glucose levels”, the HbAlc levels (db/db mice; end of week 7) was “steep and dose dependent reduction” and the “glucose excursion during the prandial phase (24 h glucose profile)” value (db/db mice; end of week 7) was “significantly reduced glucose excursion”. The ROS levels (MIA PaCa-2 cells [5]) was “significant augmentation of stress levels”, the “apoptosis (Caspase activity)” value [6] was “decreased apoptosis” and the “cholesterol accumulation (cholesterol content in the cells)” value [6] was “reduced cholesterol accumulation”. The “oxidative stress (ROS levels)” value [6] was “reduced oxidative stress” and the “cholesterol efflux (ABCA1 and ABCG1 expression)” value ([6]; 48 h) was “increased the cholesterol efflux”.
